Measured values as given in article PMC11881343, “Safety of ilunocitinib tablets (Zenrelia™) after once daily oral administration in dogs” (BMC Veterinary Research, 2025).

Legend:
[1] = system: healthy Beagle dogs; assay: 6-month target animal safety study: clinical observations, physical, neurological and ophthalmoscopic examinations; settings: for Skin discoloration, number of animals affected / Skin lesion w/discharge, number of animals affected / Skin lesion, number of animals affected / Skin scab paw, number of animals affected / Skin thickening (paws), number of animals affected / Swollen paws, number of animals affected: 8 dogs per group
Description: This was a randomized, controlled, blinded, 6-month study with a parallel design. Using a block randomization procedure stratified by sex, 20 males and 20 females were randomly allocated on study day − 3 to one of the following five groups (4 males and 4 females per group): Group 1: Untreated control (sham-dosed with 5 mL of tap water); Group 2: Ilunocitinib film-coated tablets at a target dose level of 0.8 mg/kg (1X); Group 3: Ilunocitinib film-coated tablets at a target dose level of 1.6 mg/kg (2X); Group 4: Ilunocitinib film-coated tablets at a target dose level of 2.4 mg/kg (3X) and Group 5: Ilunocitinib film-coated tablets at a target dose level of 4.0 mg/kg (5X). The experimental unit was the individual dog.
The dose levels were selected based on the maximum therapeutic dose (i.e. 0.8 mg/kg, 1X) and the requirement to test multiples of the maximum therapeutic dose, i.e. 2X, 3X and 5X the therapeutic dose. Doses for each individual animal were based on the most recent body weight. Commercial tablets of ilunocitinib, available in 4.8, 6.4, 8.5, and 15 mg strength, were dispensed. These tablets were combined appropriately to meet the individual’s precise dosage requirement, ensuring there was no underdosing. […] Approximately 5 mL of water was given after each administration and the mouth checked to ensure the tablets had been swallowed. Control animals were sham treated with 5 mL of tap water.
Animals were observed twice daily, at least 6 h apart, over the entire course of the study for morbidity, mortality and injury. Clinical examinations of each dog were performed before treatment administration and at approximately 2 and 5 h post treatment. Observations included, but were not limited to, evaluation of skin, fur, eyes, ears, nose, oral cavity, thorax, abdomen, external genitalia, limbs and feet, respiratory and circulatory signs, autonomic effects such as salivation, and nervous system effects including tremors, convulsions, reactivity to handling, and unusual behavior.
Body weights for all animals were recorded during the acclimation phase (study days − 12 and − 1) and then once weekly during the study. Food consumption (dry and wet food) was measured and recorded daily. […] Assessments including overall general condition and behavior, ocular inspection, integument, musculoskeletal, gastrointestinal, body temperature, cardiovascular and respiratory systems including auscultation-based assessment, reproductive, lymphatic, urinary and nervous systems.

[2] = system: healthy Beagle dogs; settings: dog, in vivo
Description: At study termination (study day 183), the dogs were humanely euthanized by an intravenous injection of pentobarbital sodium/phenytoin solution under sedation with 6.6–13.2 mg/kg Telazol® (tiletamine/zolazepam) subcutaneous injection. Gross and microscopic examinations were carried out on all animals by a board-certified veterinary pathologist.

[3] = 1X (0.8 mg/kg oral once daily, 6 months)
[4] = 2X (1.6 mg/kg oral once daily, 6 months)
[5] = 3X (2.4 mg/kg oral once daily, 6 months)
[6] = 5X (4.0 mg/kg oral once daily, 6 months)

SMILES: N#CCC1(n2cc(-c3ncnc4[nH]ccc34)cn2)CN(S(=O)(=O)C2CC2)C1 [ilunocitinib]
- serious adverse effects during the course of the study ([1]; 0.8 to 4.0 mg/kg once daily for 6 months): no serious adverse effects
- Skin discoloration, number of animals affected [1, 3]: 1
- Skin lesion w/discharge, number of animals affected [1, 3]: 1
- Skin lesion, number of animals affected [1, 3]: 4
- Skin scab paw, number of animals affected [1, 3]: 0
- Skin thickening (paws), number of animals affected [1, 3]: 0
- Swollen paws, number of animals affected [1, 3]: 1
- interdigital furunculosis, or cysts, with or without discharge on one or more paws ([1]; 1X to 5X): dose-dependent presence
- Skin discoloration, number of animals affected [1, 4]: 1
- Skin lesion w/discharge, number of animals affected [1, 4]: 3
- Skin lesion, number of animals affected [1, 4]: 5
- Skin scab paw, number of animals affected [1, 4]: 0
- Skin thickening (paws), number of animals affected [1, 4]: 1
- Swollen paws, number of animals affected [1, 4]: 5
- Skin discoloration, number of animals affected [1, 5]: 2
- Skin lesion w/discharge, number of animals affected [1, 5]: 3
- Skin lesion, number of animals affected [1, 5]: 6
- Skin scab paw, number of animals affected [1, 5]: 1
- Skin thickening (paws), number of animals affected [1, 5]: 1
- Swollen paws, number of animals affected [1, 5]: 6
- Skin discoloration, number of animals affected [1, 6]: 0
- Skin lesion w/discharge, number of animals affected [1, 6]: 4
- Skin lesion, number of animals affected [1, 6]: 8
- Skin scab paw, number of animals affected [1, 6]: 1
- Skin thickening (paws), number of animals affected [1, 6]: 0
- Swollen paws, number of animals affected [1, 6]: 3
- ophthalmological or neurological findings associated with treatment ([1]; all dose levels): No ophthalmological or neurological findings
- serious adverse effects or mortality ([1]; including at 5X overdose for 6 months): no serious adverse effects or mortality
- tolerability ([1]; therapeutic dose (0.8 mg/kg)): well-tolerated
- Microscopic findings across all groups [2]: minimal and largely consistent with background pathology
- combined adrenal gland weight vs controls [2]: increased combined adrenal gland weight
- cutaneous lesions (microscopic), animals affected [2]: 5 out of 8
- enlarged thyroid/parathyroid glands (incidental macroscopic finding) [2]: single case of enlarged thyroid/parathyroid glands
- focal lesions on the lungs (incidental macroscopic finding) [2]: two focal lesions on the lungs
